Data reported in US20050277696A1, “Novel use of cytotoxic drugs for treatment and prophylasxis of aging diseases by reversing the loss of elasticity of epithelial cells due to aging” (priority 2004, published 2005).

Test system: human epithelial cells
Assay: clonal growth of human epithelial cells in cell culture over 7 days (surviving colonies counted)
Type: cell-based
Description: Therefore, before the comparison of results based on rigidity of older cells against younger and more elastic cells, the proper concentration of the drug must be found. Dissolved in an appropriate solvent (for example, dimethylsulfoxide for Cytochalasin D, B and Latrunculin A, B, Jasplakinolide), the drug should be added to the cell culture medium. […] The amount of the drug should not be in such a high concentration that would result in the destruction of the cells. As an example, when the treatment of the old cells is done with Cytochalasin B, a cell permeable fungal toxin which binds to the barbed end of actin filaments and results in the inhibition of both the association and dissociation of its subunits, a 4 μg/mL solution of Cytochalasin B in the medium was optimal to treat viable cells for 12 hours. This concentration was determined by performing experiments to measure clonal growth of human epithelial cells in cell culture over 7 days in different concentrations of the drug. The number of surviving colonies of cells was counted to determine the range of concentrations that were non-toxic or non-cytostatic. This range was from 1.0 to 10 μg/mL. The determination of the appropriate concentration of a cytotoxic drug is dependent upon the particular drug of choice, but one skilled in the art would recognize methods to determine the appropriate drug concentration.

C=C1[C@@H](C)[C@H]2[C@H](Cc3ccccc3)NC(=O)[C@]23OC(=O)/C=C/[C@H](O)CCC[C@@H](C)C/C=C/[C@H]3[C@@H]1O [Cytochalasin B]
range of concentrations that were non-toxic or non-cytostatic (clonal growth over 7 days in different concentrations of the drug, number of surviving colonies counted): 1.0 to 10 µg/mL | optimal concentration in the medium to treat viable cells (old cells, treatment for 12 hours, solution in the medium): 4 µg/mL
